In the supplement of paper PMC11208160:

Assay: recombinant barcode read abundance after kanamycin selection (control-corrected) (log10(CPM+1)); higher = more efficient recombination; sequences stand for … in AGTGCAGAGAAAATCGGCCAGTTTTCTCTGCCTGCAGTCCGCATGCCGT…AGATTTATGCAGCGGACTGCCTTTCTCCCAAAGTGATAAACCGGACAGTATCATGGACCGGTTTTCCCGGTAATCCGTATTTGCAAGGTTGGTTTCACT; site = the 11-nt target
Outline: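 For this pooled screen, each oligo contained a promoter, a target, a barcode and the J23119-driven first 104 bases of the bridge RNA. Gibson cloning placed it into a vector supplying the remaining 73 bp and a T7-inducible recombinase, and the pool was co-electroporated into E. coli with a donor plasmid. Recombination efficiency is derived from barcode counts per million at recombinant junctions after averaging and control correction, and is expressed on a log scale as log10(CPM+1), with selection on chloramphenicol/ampicillin/kanamycin plus 0.1 mM IPTG against a chloramphenicol/ampicillin LB agar control.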
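Further: IS621 recombinase and bridge RNA in Escherichia coli cells.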

Sequence	recombinant barcode read abundance (log10)
CTTCGAGCTTGGGTTCTAACCTGTTGCCG (site CTTCGAGCTCG)	0.873
CTAGTTGCTTGGGTTCTAACCTGTTGCAA (site CTAATTGCTTT)	0.0799
TGTGATCCTTGGGTTCTAACCTGTTGCAT (site TGAGATTCTAT)	0.0352
GTGCGCTCTTGGGTTCTAACCTGTTGCCG (site GTGAGCCCTCG)	0.076
CGAGCTCCTTGGGTTCTAACCTGTTGCCC (site CGAGCTCCTGG)	0.591
TAGCGGACTTGGGTTCTAACCTGTTGCAT (site TAGCGGACTAT)	0.992
CTGGGCTCTTGGGTTCTAACCTGTTGCCA (site CTGGGCTCTTG)	1.14
AGATGTGCTTGGGTTCTAACCTGTTGCCT (site AGATGTGCTAG)	1.49
GGACTATCTTGGGTTCTAACCTGTTGCCT (site GGACTATCTAG)	1.18
CAATGGTCTTGGGTTCTAACCTGTTGCGT (site CAATGGTCTAT)	2.16
TAGTAGTCTTGGGTTCTAACCTGTTGCTT (site TAGTAGTCTAT)	1.15
TTCGCATCTTGGGTTCTAACCTGTTGCTT (site CCAAGGCCTCG)	0.209
TGAGAGGCTTGGGTTCTAACCTGTTGCCT (site TGAGTGGCTAG)	0.638
CGGGCGCCTTGGGTTCTAACCTGTTGCGG (site CGGGCGCCTCC)	2.14
GCCTGTTCTTGGGTTCTAACCTGTTGCCT (site GGCTGTTCTAG)	0.0257
TGTTGTCCTTGGGTTCTAACCTGTTGCTG (site AACATAACTAC)	0.141
GGCCTCCCTTGGGTTCTAACCTGTTGCCT (site GGCGTCCCTAG)	0.947
ATAGGGTCTTGGGTTCTAACCTGTTGCCT (site ATAGGGTCTAG)	2.5
TAGCCGGCTTGGGTTCTAACCTGTTGCAG (site GAGCCGACTCT)	0.385
TCACAGGCTTGGGTTCTAACCTGTTGCCG (site TCTCAGGCTCG)	0.377
GAACACACTTGGGTTCTAACCTGTTGCCG (site GAACACACTCG)	1.56
TTAGACTCTTGGGTTCTAACCTGTTGCTA (site TTAGACTCTTA)	2.36

Sequence	recombinant barcode read abundance (log10)
CATTCCACTTGGGTTCTAACCTGTTGCCT (site CATTCCACTAG)	0.369
GGCCTCCCTTGGGTTCTAACCTGTTGCCT (site GGCATCCCTAG)	0.242
CTCACACCTTGGGTTCTAACCTGTTGCCT (site ATCACACCTAG)	0.386
GTGTCGCCTTGGGTTCTAACCTGTTGCCT (site GTGTCGCCTAG)	0.845
GTGTGTTCTTGGGTTCTAACCTGTTGCCT (site GTGTGTGCTAG)	0
TGTACGTCTTGGGTTCTAACCTGTTGCTT (site TGTACGACTAG)	0.0847
AGGTCACCTTGGGTTCTAACCTGTTGCGT (site AGGTCACCTAA)	0.276
AATGCTCCTTGGGTTCTAACCTGTTGCTT (site AATGCTCCTAA)	0.49
GTTACCTCTTGGGTTCTAACCTGTTGCCT (site CAAGGTCCTCC)	0.0556
CTAGACCCTTGGGTTCTAACCTGTTGCCT (site TTAGACCCTAG)	0.0677
CGATCTACTTGGGTTCTAACCTGTTGCAG (site AAGGGGCCTAG)	0.23
GAGTTCCCTTGGGTTCTAACCTGTTGCGT (site GAGTTGCCTAC)	0.23
GGCGAACCTTGGGTTCTAACCTGTTGCAT (site GACGATCCTAT)	0.126
CTACAATCTTGGGTTCTAACCTGTTGCAT (site CTACAATCTAT)	1.51
TCCAGCACTTGGGTTCTAACCTGTTGCCT (site TCTGGCACTAG)	0
CGCGCTCCTTGGGTTCTAACCTGTTGCCT (site CGCGCTCCTAG)	0.245
GTAGCGACTTGGGTTCTAACCTGTTGCCT (site ATAGGGACTAG)	0.149
ATTCCATCTTGGGTTCTAACCTGTTGCCT (site ATCCCATCTAG)	0.281
TAGGCTCCTTGGGTTCTAACCTGTTGCAA (site TAGGCTCCTAT)	0.309
CTCCAGCCTTGGGTTCTAACCTGTTGCGG (site CTCCAACCTCC)	0.411
TAGCTCCCTTGGGTTCTAACCTGTTGCCG (site TAGCTCCCTAG)	0.475
GGGGACCCTTGGGTTCTAACCTGTTGCGG (site GGGGACCCTCC)	3.01

Sequence	recombinant barcode read abundance (log10)
ATGCAAGCTTGGGTTCTAACCTGTTGCCT (site ATGCAACCTAG)	0.0657
TCCAGTACTTGGGTTCTAACCTGTTGCTT (site TCCAGTACTAA)	0.0786
GGTTCATCTTGGGTTCTAACCTGTTGCCA (site GGCTCCTCTTG)	0.0691
GAAAGTTCTTGGGTTCTAACCTGTTGCCT (site GTAAGTTCTAG)	0.153
GTACGGTCTTGGGTTCTAACCTGTTGCAT (site GTACGATCTTT)	0.107
CTGCTGTCTTGGGTTCTAACCTGTTGCCA (site CTGATGTCTTG)	0.154
GGGGCAACTTGGGTTCTAACCTGTTGCTA (site GGGGCAACTTA)	0.388
TACGCTCCTTGGGTTCTAACCTGTTGCAT (site TACGCTCCTAT)	0.785
TACAGCTCTTGGGTTCTAACCTGTTGCTT (site TACGGCTCTAA)	0.0374
TGTGGAGCTTGGGTTCTAACCTGTTGCCG (site TGTGGAGCTCG)	1.24
CGTTCGACTTGGGTTCTAACCTGTTGCCT (site CGTTCTACTAG)	0.0286
TGAGAGGCTTGGGTTCTAACCTGTTGCCT (site TGAGAGGCTAG)	0.718
GTGTCTCCTTGGGTTCTAACCTGTTGCAT (site GTGTATCCTAT)	0.162
GGCTGCCCTTGGGTTCTAACCTGTTGCCT (site GTCTGCCCTAG)	0.149
TAGGAGACTTGGGTTCTAACCTGTTGCGT (site TAGGACACTAC)	0.642
CAATGGGCTTGGGTTCTAACCTGTTGCCG (site CAATGGGCTCG)	0.961
GGTTCCTCTTGGGTTCTAACCTGTTGCGG (site TACCTAACTAA)	0.118
CGAGCTCCTTGGGTTCTAACCTGTTGCTT (site CGAGCTCCTAT)	0.337
CGTTCGACTTGGGTTCTAACCTGTTGCAT (site CGTCCGACTAT)	0.0713
TCGGCGACTTGGGTTCTAACCTGTTGCCT (site TCTGCGACTAG)	0.291
CCATCCACTTGGGTTCTAACCTGTTGCCT (site CCATCCACTAG)	0.318
CCGCTTACTTGGGTTCTAACCTGTTGCCT (site CCGCTCGCTAG)	0.0115

Sequence	recombinant barcode read abundance (log10)
GCATCCTCTTGGGTTCTAACCTGTTGCCA (site AGGAGTACTAA)	0.146
GCAATATCTTGGGTTCTAACCTGTTGCCT (site AAGTCTCCTCT)	0.0108
CTGCACCCTTGGGTTCTAACCTGTTGCCT (site CGCCACCCTAG)	0.411
GCTCATGCTTGGGTTCTAACCTGTTGCCT (site GCTCATGCTAG)	1.92
CCGGGGTCTTGGGTTCTAACCTGTTGCCT (site ACGGGGTCTAG)	0.789
ACTACTACTTGGGTTCTAACCTGTTGCCA (site ACTACTACTTG)	0.0676
GTTTCTTCTTGGGTTCTAACCTGTTGCCT (site GTTTCTTCTAG)	0.0189
AGTCAGTCTTGGGTTCTAACCTGTTGCGT (site AGTCAGTCTAC)	2.33
GTCTTATCTTGGGTTCTAACCTGTTGCCT (site GTCTCATCTAG)	0.0374
AGGTGTGCTTGGGTTCTAACCTGTTGCCT (site AGGTATGCTAG)	0.289
TGATATGCTTGGGTTCTAACCTGTTGCCT (site TGAAATGCTAG)	0.322
TATTATACTTGGGTTCTAACCTGTTGCTT (site TATTATACTAT)	0.34
CCACGGACTTGGGTTCTAACCTGTTGCCT (site CCAAGGACTAG)	0.143
CTAATACCTTGGGTTCTAACCTGTTGCGT (site CTCATACCTAC)	0.0518
CATAAGCCTTGGGTTCTAACCTGTTGCCT (site CATGAGCCTAG)	0.0152
GCGCCTCCTTGGGTTCTAACCTGTTGCAT (site GCGCCTCCTAT)	0.504
TATGGAGCTTGGGTTCTAACCTGTTGCAG (site GTTGGAGCTCT)	1.14
CAATGGTCTTGGGTTCTAACCTGTTGCGT (site CAATGGTCTAC)	3.06
GTGGTATCTTGGGTTCTAACCTGTTGCCT (site GTGGTACCTAG)	0.396
ATAAGGCCTTGGGTTCTAACCTGTTGCCT (site ATAAGGCCTAG)	0.154
